In publication PMC6934184, “Selective DNA-PKcs inhibition extends the therapeutic index of localized radiotherapy and chemotherapy” (The Journal of Clinical Investigation, 2019):

Molecular target: T1, SNF1LK2 (Homo sapiens, UniProt Q9H0K1)
T1 construct: purchased Thermo Fisher Scientific (Life Technologies) SelectScreen
Test: SelectScreen Z'LYTE
Type: biochemical
Method in brief: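 NU5455 was profiled across the SelectScreen Broad panel of kinase activity and binding assays. Z'LYTE reactions such as CSF1R ran at apparent Km ATP, while the Adapta CAMK1 assay used ATP listed as 10. Values are given as percent.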

T1 sequence (Q9H0K1 whole entry): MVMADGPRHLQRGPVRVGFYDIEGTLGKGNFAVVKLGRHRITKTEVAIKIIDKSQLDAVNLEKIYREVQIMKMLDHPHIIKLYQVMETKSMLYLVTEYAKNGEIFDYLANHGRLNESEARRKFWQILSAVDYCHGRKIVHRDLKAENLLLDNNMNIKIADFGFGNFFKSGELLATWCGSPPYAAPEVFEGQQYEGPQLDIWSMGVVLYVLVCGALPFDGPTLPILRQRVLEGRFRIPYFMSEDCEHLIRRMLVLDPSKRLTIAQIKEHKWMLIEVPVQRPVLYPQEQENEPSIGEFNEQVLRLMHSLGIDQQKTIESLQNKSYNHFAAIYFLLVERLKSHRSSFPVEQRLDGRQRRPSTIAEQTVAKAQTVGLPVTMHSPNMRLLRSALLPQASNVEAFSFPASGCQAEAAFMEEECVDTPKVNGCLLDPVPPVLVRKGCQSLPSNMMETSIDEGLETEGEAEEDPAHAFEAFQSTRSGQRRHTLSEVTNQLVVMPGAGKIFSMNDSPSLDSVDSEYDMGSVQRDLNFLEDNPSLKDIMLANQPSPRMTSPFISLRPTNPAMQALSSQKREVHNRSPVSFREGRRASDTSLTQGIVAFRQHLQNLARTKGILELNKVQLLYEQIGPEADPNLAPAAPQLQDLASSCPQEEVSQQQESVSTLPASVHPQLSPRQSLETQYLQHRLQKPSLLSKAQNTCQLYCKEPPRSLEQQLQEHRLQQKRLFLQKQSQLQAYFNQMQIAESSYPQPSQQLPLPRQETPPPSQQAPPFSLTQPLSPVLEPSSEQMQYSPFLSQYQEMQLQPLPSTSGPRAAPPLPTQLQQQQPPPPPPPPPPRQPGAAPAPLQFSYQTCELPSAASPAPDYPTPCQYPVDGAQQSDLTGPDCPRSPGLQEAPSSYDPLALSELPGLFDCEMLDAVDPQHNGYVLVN

For `CN(C(=O)CN1CCOCC1)c1ccc2sc3c(-c4cccc5c(=O)cc(N6CC7CCC(C6)O7)oc45)cccc3c2c1` [NU5455], which inhibition at 1 µM is on record?
The inhibition at 1 µM was 26.6%.
